# Experimental data reported in ChEMBL document CHEMBL1129432, “Structure-activity relationships of a series of novel (piperazinylbutyl)thiazolidinone antipsychotic agents related to 3-[4-[4-(6-fluorobenzo[b]thien-3-yl)-1-piperazinyl]butyl]-2,5,5- trimethyl-4-thiazolidinone maleate” (J Med Chem, 1996).
# Columns and labels:
# [1] = biological target: T1, 5-hydroxytryptamine receptor 1A (Rattus norvegicus, UniProt P19327); assay: Binding affinity towards serotonin 5-HT1A receptor was determined in rat hippocampus using [3H]8-OH-DPAT as ligand; format: tissue-based
# T1 sequence (P19327 whole entry): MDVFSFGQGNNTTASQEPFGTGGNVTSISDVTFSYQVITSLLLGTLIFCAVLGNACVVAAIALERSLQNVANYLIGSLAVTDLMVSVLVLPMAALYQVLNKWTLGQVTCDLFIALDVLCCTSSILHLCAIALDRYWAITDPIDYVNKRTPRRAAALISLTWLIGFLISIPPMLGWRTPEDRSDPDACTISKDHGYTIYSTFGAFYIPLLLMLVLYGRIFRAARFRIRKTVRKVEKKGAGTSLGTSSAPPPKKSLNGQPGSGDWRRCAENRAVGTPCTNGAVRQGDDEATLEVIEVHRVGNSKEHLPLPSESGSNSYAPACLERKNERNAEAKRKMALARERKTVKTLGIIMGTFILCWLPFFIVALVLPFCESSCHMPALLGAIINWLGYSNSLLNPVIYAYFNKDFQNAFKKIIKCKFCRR
# [2] = biological target: Serotonin 2 (5-HT2) receptor (Rattus norvegicus, UniProt P30994+P08909+P14842); assay: Binding affinity towards serotonin 5-HT2 receptor was determined in rat cortex using [3H]spiperone as ligand
# Rattus norvegicus [3] = assay: Compound at an intraperitoneal dose of 10 mg/Kg was tested for the inhibition of apomorphine-induced stereotypy in rat; format: functional; set-up: scale not given: the % may be the effect or the level left
# D(2) dopamine receptor = D(2) dopamine receptor (Rattus norvegicus, UniProt P61169); assay: Binding affinity towards Dopamine receptor D2 was determined in rat striatum using [3H]- spiperone as radioligand; format: tissue-based
# D(2) dopamine receptor, sequence (P61169 whole entry): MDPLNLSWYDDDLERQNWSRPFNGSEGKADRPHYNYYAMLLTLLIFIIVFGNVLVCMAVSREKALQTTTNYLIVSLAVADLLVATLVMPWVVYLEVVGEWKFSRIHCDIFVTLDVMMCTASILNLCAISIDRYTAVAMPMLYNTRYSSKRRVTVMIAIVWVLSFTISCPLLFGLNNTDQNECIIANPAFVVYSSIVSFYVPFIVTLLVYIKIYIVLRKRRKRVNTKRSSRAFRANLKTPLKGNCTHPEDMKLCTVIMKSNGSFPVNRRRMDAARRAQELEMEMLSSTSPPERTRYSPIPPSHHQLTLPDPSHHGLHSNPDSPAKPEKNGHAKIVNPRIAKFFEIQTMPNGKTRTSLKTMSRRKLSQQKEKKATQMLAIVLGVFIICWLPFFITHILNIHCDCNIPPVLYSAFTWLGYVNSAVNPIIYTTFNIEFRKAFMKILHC
# Rattus norvegicus [4] = assay: Compound at an intraperitoneal dose of 20 mg/Kg was tested for the inhibition of apomorphine-induced stereotypy in rat; format: functional; set-up: scale not given: the % may be the effect or the level left
# [5] = Compound at an intraperitoneal dose of 40 mg/Kg was tested for the inhibition of apomorphine-induced stereotypy in rat; format: functional; set-up: scale not given: the % may be the effect or the level left
# Rattus norvegicus [6] = assay: Compound at an intraperitoneal dose of 80 mg/Kg was tested for the inhibition of apomorphine-induced stereotypy in rat; format: functional; set-up: scale not given: the % may be the effect or the level left
# Rattus norvegicus [7] = assay: Compound at an intraperitoneal dose of 2.5 mg/Kg was tested for the inhibition of apomorphine-induced stereotypy in rat; format: functional; set-up: scale not given: the % may be the effect or the level left
# Rattus norvegicus [8] = assay: Compound at an intraperitoneal dose of 5 mg/Kg was tested for the inhibition of apomorphine-induced stereotypy in rat; format: functional; set-up: scale not given: the % may be the effect or the level left
# [9] = biological target: T2, 5-hydroxytryptamine receptor 2A (Homo sapiens, UniProt P28223); assay: Inhibitory concentration against human 5-HT2A receptor in BEK cells; format: cell-based
# T2 sequence (P28223 whole entry): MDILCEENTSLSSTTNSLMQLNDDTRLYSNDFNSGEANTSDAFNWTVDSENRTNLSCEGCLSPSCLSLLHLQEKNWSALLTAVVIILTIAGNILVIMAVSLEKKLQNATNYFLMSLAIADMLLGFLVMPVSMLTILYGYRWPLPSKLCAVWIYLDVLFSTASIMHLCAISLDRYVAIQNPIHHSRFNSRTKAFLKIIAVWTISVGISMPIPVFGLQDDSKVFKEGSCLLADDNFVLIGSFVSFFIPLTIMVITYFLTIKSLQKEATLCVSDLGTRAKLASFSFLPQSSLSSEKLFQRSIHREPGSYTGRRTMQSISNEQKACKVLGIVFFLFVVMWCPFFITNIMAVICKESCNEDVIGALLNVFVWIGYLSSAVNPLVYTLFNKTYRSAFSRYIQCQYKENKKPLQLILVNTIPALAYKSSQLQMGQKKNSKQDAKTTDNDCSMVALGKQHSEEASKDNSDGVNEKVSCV
# [10] = biological target: T2, 5-hydroxytryptamine receptor 2A; assay: Binding affinity towards human 5-HT2A receptor in BEK cells; format: cell-based
# D(4) dopamine receptor [11] = biological target: T3, D(4) dopamine receptor (Homo sapiens, UniProt P21917); assay: Binding affinity against human Dopamine receptor D4.2 in CHO cells; format: cell-based
# T3 sequence (P21917 whole entry): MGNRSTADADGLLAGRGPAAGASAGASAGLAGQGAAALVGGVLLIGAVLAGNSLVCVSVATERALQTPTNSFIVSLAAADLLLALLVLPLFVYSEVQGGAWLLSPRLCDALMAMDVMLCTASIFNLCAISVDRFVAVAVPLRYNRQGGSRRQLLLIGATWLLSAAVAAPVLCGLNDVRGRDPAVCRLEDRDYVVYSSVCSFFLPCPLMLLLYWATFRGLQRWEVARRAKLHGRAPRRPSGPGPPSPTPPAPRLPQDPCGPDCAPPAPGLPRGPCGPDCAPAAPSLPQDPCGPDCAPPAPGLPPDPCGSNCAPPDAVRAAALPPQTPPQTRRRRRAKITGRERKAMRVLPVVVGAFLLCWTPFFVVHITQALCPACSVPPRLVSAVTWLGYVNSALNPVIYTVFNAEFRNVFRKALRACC
# Rattus norvegicus [12] = assay: Percentage change in Social interaction when compound administered at a doe of 2.5 mg/kg ip in rats; format: functional; conditions: route intraperitoneal
# Rattus norvegicus [13] = assay: Percentage change in Total activity (anti psychotic) when compound administered at a doe of 1.25 mg/kg ip in rats; format: functional; conditions: route intraperitoneal
# Rattus norvegicus [14] = assay: Percentage change in Total activity (anti psychotic) when compound administered at a doe of 2.5 mg/kg ip in rats; format: functional; conditions: route intraperitoneal
# Rattus norvegicus [15] = assay: Percentage change in Social interaction when compound administered at a doe of 1.25 mg/kg ip in rats; format: functional; conditions: route intraperitoneal
# Rattus norvegicus [16] = assay: Percentage change in chronic single unit sampling when compound given at a dose of 10 mg/kg ip in rats; format: functional; conditions: route intraperitoneal
# Rattus norvegicus [17] = assay: Percentage change in chronic single unit sampling when compound given at a dose of 10 mg/kg ip in rats(Expt-2); format: functional; conditions: route intraperitoneal
# Rattus norvegicus [18] = assay: Percentage change in chronic single unit sampling when compound given at a dose of 20 mg/kg ip in rats; format: functional; conditions: route intraperitoneal
# Rattus norvegicus [19] = assay: Percentage change in chronic single unit sampling when compound given at a dose of 20 mg/kg ip in rats (Expt-2); format: functional; conditions: route intraperitoneal
# Rattus norvegicus [20] = assay: Anti psychotic effect Social interaction when compound administered at a doe of 1.25 mg/kg ip in rats; format: functional; conditions: route intraperitoneal
# Rattus norvegicus [21] = assay: Anti psychotic effect Social interaction when compound administered at a doe of 2.5 mg/kg ip in rats; format: functional; conditions: route intraperitoneal
# Rattus norvegicus [22] = assay: Total activity (anti psychotic) when compound administered at a doe of 2.5 mg/kg ip in rats; format: functional; conditions: route intraperitoneal
# Rattus norvegicus [23] = assay: Total activity (anti psychotic) when compound administered at a doe of 1.25 mg/kg ip in rats; format: functional; conditions: route intraperitoneal
# D(4) dopamine receptor [24] = biological target: T3, D(4) dopamine receptor
# Description: Inhibitory concentration against human Dopamine receptor D4.2 in CHO cells
# Rattus norvegicus [25] = assay: Compound at an intraperitoneal dose of 50 mg/Kg was tested for the inhibition of apomorphine-induced stereotypy in rat; format: functional; set-up: scale not given: the % may be the effect or the level left
# Rattus norvegicus [26] = assay: Compound at an intraperitoneal dose of 60 mg/Kg was tested for the inhibition of apomorphine-induced stereotypy in rat; format: functional; set-up: scale not given: the % may be the effect or the level left
# Rattus norvegicus [27] = assay: Percentage change in Social interaction when compound administered at a doe of 5 mg/kg ip in rats; format: functional; conditions: route intraperitoneal
# Rattus norvegicus [28] = assay: Percentage change in Total activity (anti psychotic) when compound administered at a doe of 5 mg/kg ip in rats; format: functional; conditions: route intraperitoneal
# Rattus norvegicus [29] = assay: Percentage change in chronic single unit sampling when compound given at a dose of 10 mg/kg ip (Expt-2); format: functional; conditions: route intraperitoneal
# Rattus norvegicus [30] = assay: Anti psychotic effect Social interaction when compound administered at a doe of 5 mg/kg ip in rats; format: functional; conditions: route intraperitoneal
# Rattus norvegicus [31] = assay: Total activity (anti psychotic) when compound administered at a doe of 5 mg/kg ip in rats; format: functional; conditions: route intraperitoneal
# Rattus norvegicus [32] = assay: Percentage change in Social interaction when compound administered at a doe of 10 mg/kg ip in rats; format: functional; conditions: route intraperitoneal
# Rattus norvegicus [33] = assay: Percentage change in Total activity (anti psychotic) when compound administered at a doe of 10 mg/kg ip in rats; format: functional; conditions: route intraperitoneal
# Rattus norvegicus [34] = assay: Anti psychotic effect Social interaction when compound administered at a doe of 10 mg/kg ip in rats; format: functional; conditions: route intraperitoneal
# Rattus norvegicus [35] = assay: Total activity (anti psychotic) when compound administered at a doe of 10 mg/kg ip in rats; format: functional; conditions: route intraperitoneal
# [36] = Intraperitoneal effective dose required for inhibition of apomorphine-induced stereotypy in rat; format: functional; conditions: ip
structure (smiles),measurement,setting,value
O=C1N(CCCCN2CCN(c3nsc4ccccc34)CC2)CSC12CCCCC2,IC50,[1],2 nM
same,IC50,[2],18 nM
same,Activity,Rattus norvegicus [3],100%
O=C1N(CCCCN2CCN(c3nsc4cc(Cl)ccc34)CC2)CSC12CCCCC2,IC50,[1],969 nM
same,IC50,[2],1060 nM
same,IC50,D(2) dopamine receptor,671 nM
same,Activity,Rattus norvegicus [4],0%
same,Activity,[5],80%
CC1SCN(CCCCN2CCN(c3nsc4ccccc34)CC2)C1=O (stereo not given),IC50,[1],11 nM
same,IC50,[2],5 nM
same,IC50,D(2) dopamine receptor,86 nM
same,Activity,Rattus norvegicus [4],0%
same,Activity,[5],17%
O=C1N(CCCCN2CCN(c3nsc4ccccc34)CC2)CSC12Cc1ccccc1C2,IC50,[1],52 nM
same,IC50,[2],1110 nM
same,IC50,D(2) dopamine receptor,697 nM
same,Activity,Rattus norvegicus [6],50%
same,Activity,[5],0%
CC(C)(O)C1SCN(CCCCN2CCN(c3csc4cc(F)ccc34)CC2)C1=O (stereo not given),IC50,[1],91 nM
same,IC50,[2],105 nM
same,IC50,D(2) dopamine receptor,453 nM
same,Activity,Rattus norvegicus [7],10%
same,Activity,Rattus norvegicus [8],40%
O=C1N(CCCCN2CCN(c3nsc4ccccc34)CC2)CSC12CCCC2,IC50,[1],2 nM
same,IC50,[2],3 nM
same,Activity,Rattus norvegicus [3],90%
CC1SC(C)(C)C(=O)N1CCCCN1CCN(c2csc3cc(F)ccc23)CC1 (stereo not given),IC50,[1],61 nM
same,IC50,[2],56 nM
same,IC50,[9],17 nM
same,Ki,[10],8 nM
same,Ki,D(4) dopamine receptor [11],5 nM
same,Change,Rattus norvegicus [12],9%
same,Change,Rattus norvegicus [13],1%
same,Change,Rattus norvegicus [14],-32%
same,Change,Rattus norvegicus [15],14%
same,Change,Rattus norvegicus [16],-34%
same,Change,Rattus norvegicus [17],14%
same,Change,Rattus norvegicus [18],-57%
same,Change,Rattus norvegicus [19],32%
same,Social interaction,Rattus norvegicus [20],114
same,Social interaction,Rattus norvegicus [21],109.1
same,Total activity,Rattus norvegicus [22],96
same,Total activity,Rattus norvegicus [23],144.3
same,IC50,D(4) dopamine receptor [24],29 nM
CC1(C)SCN(CCCCN2CCN(c3csc4cc(F)ccc34)CC2)C1=O,IC50,[2],10 nM
same,IC50,D(2) dopamine receptor,14 nM
same,Activity,Rattus norvegicus [3],0%
CC1SC2(CCCC2)C(=O)N1CCCCN1CCN(c2csc3cc(F)ccc23)CC1 (stereo not given),IC50,[1],189 nM
same,IC50,[2],131 nM
same,IC50,[9],8 nM
same,Ki,[10],4 nM
same,IC50,D(2) dopamine receptor,954 nM
same,Ki,D(4) dopamine receptor [11],117 nM
same,Activity,Rattus norvegicus [25],20%
same,Activity,Rattus norvegicus [26],50%
same,Change,Rattus norvegicus [12],14%
same,Change,Rattus norvegicus [27],5%
same,Change,Rattus norvegicus [13],1%
same,Change,Rattus norvegicus [14],18%
same,Change,Rattus norvegicus [15],13%
same,Change,Rattus norvegicus [28],-36%
same,Change,Rattus norvegicus [29],-12%
same,Change,Rattus norvegicus [16],-27%
same,Change,Rattus norvegicus [18],-39%
same,Change,Rattus norvegicus [19],-8%
same,Social interaction,Rattus norvegicus [20],108
same,Social interaction,Rattus norvegicus [21],106.5
same,Social interaction,Rattus norvegicus [30],97.3
same,Total activity,Rattus norvegicus [22],106.3
same,Total activity,Rattus norvegicus [31],82.1
same,Total activity,Rattus norvegicus [23],146
same,IC50,D(4) dopamine receptor [24],713 nM
CN1CCN(C2=Nc3cc(Cl)ccc3Nc3ccccc32)CC1 [CLOZAPINE],Change,Rattus norvegicus [32],40%
same,Change,Rattus norvegicus [27],14%
same,Change,Rattus norvegicus [33],-15%
same,Change,Rattus norvegicus [28],-18%
same,Change,Rattus norvegicus [18],-79%
same,Change,Rattus norvegicus [19],37%
same,Activity,[5],33%
same,Social interaction,Rattus norvegicus [34],151.3
same,Social interaction,Rattus norvegicus [30],123.3
same,Total activity,Rattus norvegicus [35],146.3
same,Total activity,Rattus norvegicus [31],140.3
O=C1N(CCCCN2CCN(c3csc4ccccc34)CC2)CSC12CCCCC2,IC50,[1],102 nM
same,IC50,[2],196 nM
same,IC50,D(2) dopamine receptor,218 nM
same,Activity,Rattus norvegicus [6],50%
same,Activity,[5],33%
CC1SC(C)(C)C(=O)N1CCCCN1CCN(c2cn(-c3ccc(F)cc3)c3ccccc23)CC1 (stereo not given),IC50,[1],3050 nM
same,IC50,[2],126 nM
same,IC50,D(2) dopamine receptor,59 nM
same,ED50,[36],16.4 mg/kg
CC1(C)SCN(CCCCN2CCN(c3cn(-c4ccccc4)c4ccccc34)CC2)C1=O,IC50,[1],1730 nM
same,IC50,[2],294 nM
same,IC50,D(2) dopamine receptor,191 nM
same,ED50,[36],19.6 mg/kg
CC1SC(C)(C)C(=O)N1CCCCN1CCN(c2nsc3ccccc23)CC1 (stereo not given),IC50,[1],7 nM
same,IC50,[2],2 nM
same,Activity,Rattus norvegicus [4],0%
same,Activity,[5],40%
CC1SC(C)(C)C(=O)N1CCCCN1CCN(c2cn(-c3ccccc3)c3ccccc23)CC1 (stereo not given),IC50,[1],2550 nM
same,IC50,[2],186 nM
same,IC50,D(2) dopamine receptor,200 nM
same,Activity,Rattus norvegicus [6],67%
same,Activity,[5],0%
